Patent US9988407B2, “Prodrugs of prostate specific membrane antigen (PSMA) inhibitor” (THE JOHNS HOPKINS UNIVERSITY, priority 2014, dated 2018)

Tests used:
[1] = Chemical stability in HBSS buffer (pH 7.4) / simulated gastric fluid; type: physicochemical; conditions: for chemical stability: chemical hydrolysis / HBSS buffer; for Percentage remaining: HBSS, 10 μM, 37° C.
Method: The chemical stability of prodrugs was evaluated using simulated gastric fluid (pH 1.2) and Hanks' Balanced Salt Solution (HBSS) buffer (pH 7.4). Briefly, prodrugs were spiked (10 μM) in respective solutions and incubated at 37° C. for 1 h. At predetermined time points (0, 30 and 60 min), aliquots of 100 μL were removed and diluted with 100 μL of water. Prodrug disappearance was monitored using the developed liquid chromatography and tandem mass spectrometry (LC/MS/MS) method described below.
(§1) For LC/MS/MS, prodrugs were separated with Thermo Scientific Accela UPLC system coupled to Accela open autosampler on an Agilent C18 (100×2.1 mm id) UPLC column. The autosampler was temperature controlled and operating at 10° C. The mobile phase used for the chromatographic separation was composed of acetonitrile/water containing 0.1% formic acid and was run at a flow rate of 0.5 mL/minute for 4.5 minutes using gradient elution. The column effluent was monitored using TSQ Vantage triple-quadrupole mass spectrometric detector, equipped with an electrospray probe set in the positive ionization mode. Samples were introduced into the ionization source through a heated nebulized probe (350° C.).
(§2) For quantification of compound remaining, disappearance of prodrugs was measured from ratio of peak areas of analyte to IS. Percentage remaining was calculated in the following manner: […]

[2] = In vivo pharmacokinetics in mice, peroral, bioanalysis method 1 (total prodrug exposure); conditions: oral dosing; for permeability in vivo: mice
Method: Blood was obtained via cardiac puncture and tissue dissected at 0 min, 15 min, 30 min, 1 h, 2 h, and 4 h post dose (n=3 per time point). Single time point studies were conducted at 30 min (N=3) following dosing. Plasma was harvested from blood by centrifugation. Mean concentration-time data was used for pharmacokinetic (PK) analysis. Non-compartmental-analysis module in WinNonlin® (version 5.3) was used to assess pharmacokinetic parameters. Peak plasma concentrations (Cmax) and time to Cmax (Tmax) were the observed values. Area under the curve (AUC) was calculated by log-linear (p.o.) trapezoidal rule to the end of sample collection (AUClast) and extrapolated to infinity (AUC0-∞) by dividing the last quantifiable concentration by the terminal disposition rate constant (ke). Terminal half-life (t1/2) was estimated from first order kinetics: t1/2=0.693/ke.
Briefly, prior to extraction, frozen samples were thawed on ice. For plasma extraction, 50 μL of the calibration standards or samples were transferred into silanized microcentrifuge tubes. Sample preparation involved a single liquid extraction by addition of 300 μL of methanol as extraction solution with internal standard (i.e., 5 μM of 2-PMSA in methanol), followed by vortexing for 30 s and then centrifugation at 12000 g for 10 min. Supernatant was transferred (˜250 μL) and evaporated to dryness at 40° C. under a gentle stream of nitrogen. The residue was reconstituted with 100 μL of derivatizing agent, n-butanol with 3N HCl, and samples were vortexed. The samples were heated at ˜60 OC in a shaking water bath for 30 min. At the end of 30 min, the derivatized samples were allowed to cool at room temperature and dried again for removal of derivatizing reagent, under a gentle stream of nitrogen. The residue was reconstituted in 100 μL of 30% acetonitrile in water v/v. The samples were vortexed and centrifuged again. ˜80 μL supernatant was transferred to a 250 μL polypropylene vial sealed with a Teflon cap and a volume of 10 μL was injected onto the ultra-performance liquid chromatography (UPLC) instrument for quantitative analysis. Chromatographic analysis was performed using an Accela™ ultra high-performance system consisting of an analytical pump, and an autosampler coupled with TSQ Vantage mass spectrometer (Thermo Fisher Scientific Inc., Waltham Mass.). […] The mobile phase used was composed of 0.1% formic acid in acetonitrile and 0.1% formic acid in H2O with gradient elution, starting with 20% (organic) linearly increasing to 65% up to 2.5 min, maintaining at 65% (2.5-3.5 min) and reequilibrating to 30% by 5 min. The total run time for each analyte was 5.0 min.

[3] = Metabolic stability in mouse plasma; type: in vitro ADME; conditions: 10 μM, 37° C.
Method: (§3) For metabolic stability, plasma (mouse, dog, monkey and human) and liver microsomes (mouse, dog, monkey and human) were used. For stability, prodrugs (10 μM) were spiked in each matrix and incubated in an orbital shaker at 37° C. At predetermined times (0, 30 and 60 min), 100 μL aliquots of the mixture in triplicate were removed and the reaction quenched by addition of three times the volume of ice cold acetonitrile spiked with the internal standard (losartan 5 μM). The samples were vortexed for 30 s and centrifuged 12000 g for 10 min. 50 μL supernatant diluted with 50 μL water was transferred to a 250 μL polypropylene vial sealed with a Teflon cap. Prodrug disappearance was monitored over time using a liquid chromatography and tandem mass spectrometry (LC/MS/MS) method as described below.
as §1, §2

[4] = Metabolic stability in mouse liver microsomes; type: in vitro ADME; conditions: 10 μM, 37° C.
Method: as §3, §1, §2

[5] = Metabolic stability in mouse liver S9; type: in vitro ADME; conditions: Mouse S9, 10 μM, 37° C.
[6] = Metabolic stability in human liver microsomes; type: in vitro ADME; conditions: 10 μM, 37° C.
Method: as §3, §1, §2

[7] = Metabolic stability in human plasma; type: in vitro ADME; conditions: 10 μM, 37° C.
Method: as §3, §1, §2

[8] = In vitro metabolic stability screen in plasma and liver subcellular fractions (results in words); type: in vitro ADME; conditions: 60 min incubation
Method: as §3, §1
For quantification of compound remaining, disappearance of prodrugs was measured from ratio of peak areas of analyte to IS. Percentage remaining was calculated in the following manner:
In general, the prodrugs were screened by an in vitro metabolic stability screen, and if positive, followed by an in vivo single time point pharmacokinetic study, and in select cases, an in vivo full time course pharmacokinetic study (FIG. 3). In this Example, the four acidic functional groups in 2-PMPA were systematically capped. The carboxylic acids were first masked with simple alkyl esters (Compounds 1, 2, and 3). In vitro chemical and metabolic stability of the prodrugs then were conducted, following 60 min incubation in plasma stability screens for prodrugs.

In the case of CCCCCCCCCCCCCCCCOCCCOP(=O)(CC(CCC(=O)O)C(=O)O)OCCCOCCCCCCCCCCCCCCCC (stereo not shown) [Compound 12, 2-((Bis(3-(hexadecyloxy)propoxy)phosphoryl)methyl)pentanedioic acid], the “chemical stability” value [1] is reported as “sufficient chemical stability”.

With CC(C)OC(=O)OCOP(=O)(CC(CCC(=O)O)C(=O)O)OCOC(=O)OC(C)C (stereo not shown) [Compound 4] the “chemical stability” value [1] was “chemical instability”.

With CC(C)(C)C(=O)OCOP(=O)(CC(CCC(=O)O)C(=O)O)OCOC(=O)C(C)(C)C (stereo not shown) [Compound 5] the “chemical stability” value [1] was “chemical instability”.

For CCCCCCCCCCOP(=O)(CC(CCC(=O)O)C(=O)OC)OCCCCCCCCCC (stereo not shown) [Compound 22, 4-{[Bis(decyloxy)phosphoryl]methyl}-5-methoxy-5-oxopentanoic acid], the “permeability in vivo” value [2] was “did not show a high permeability in vivo”.

For COC(=O)C(CCC(=O)O)CP(=O)(OCOC(=O)C(C)(C)C)OCOC(=O)C(C)(C)C (stereo not shown) [Compound 8, 4-({Bis[(pivaloyloxy)methoxy]phosphoryl}methyl)-5-methoxy-5-oxopentanoic acid], the “oral availability of prodrug” value [2] was “good oral availability”.

For COC(=O)CCC(CP(=O)(OCOC(=O)C(C)(C)C)OCOC(=O)C(C)(C)C)C(=O)OC (stereo not shown) [Compound 14], the Percentage remaining ([1]; 0 min) was 100%, the Percentage remaining ([1]; 30 min) was 46% and the Percentage remaining ([1]; 60 min) was 21%. The “chemical stability” value [1] was “fall apart easily even in HBSS buffer”, the Percentage remaining ([3]; 0 min) was 100% and the Percentage remaining ([3]; 30 min) was 0%. It also gave a Percentage remaining ([3]; 60 min) of 0%, a Percentage remaining ([4]; 0 min) of 100% and a Percentage remaining ([4]; 30 min) of 2%. For the same compound, the Percentage remaining ([4]; 60 min) was 0%, the Percentage remaining ([5]; 0 min) was 100% and the Percentage remaining ([5]; 30 min) was 1%. For the same compound, the Percentage remaining ([5]; 60 min) was 0% and the “permeability in vivo” value [2] was “most permeable”.

CCCCOC(=O)c1ccccc1OP(=O)(CC(CCC(=O)OC)C(=O)OC)Oc1ccccc1C(=O)OCCCC (stereo not shown) [Compound 16, Dimethyl 2-({bis[2-(butoxycarbonyl)phenoxy]phosphoryl}methyl)pentanedioate] showed a Percentage remaining ([1]; 0 min) of 100%, a Percentage remaining ([1]; 30 min) of 100% and a Percentage remaining ([1]; 60 min) of 95%. For the same compound, the “chemical stability” value [1] was “stable in HBSS buffer”, the Percentage remaining ([3]; 0 min) was 100% and the Percentage remaining ([3]; 30 min) was 3%. It also gave a Percentage remaining ([3]; 60 min) of 1%, a Percentage remaining ([4]; 0 min) of 100% and a Percentage remaining ([4]; 30 min) of 3%. For the same compound, the Percentage remaining ([4]; 60 min) was 2%, the Percentage remaining ([5]; 0 min) was 100% and the Percentage remaining ([5]; 30 min) was 1%. The Percentage remaining ([5]; 60 min) was 2%.

Work on CCOC(=O)[C@H](Cc1ccccc1)NP(=O)(CC(CCC(=O)OC)C(=O)OC)N[C@@H](Cc1ccccc1)C(=O)OCC (stereo partly drawn) [Compound 17, Dimethyl 2-((bis(((S)-1-ethoxy-1-oxo-3-phenylpropan-2-yl)amino)phosphoryl)methyl)pentanedioate] yielded a Percentage remaining ([1]; 0 min) of 100%, a Percentage remaining ([1]; 30 min) of 93% and a Percentage remaining ([1]; 60 min) of 93%. For the same compound, the “chemical stability” value [1] was “stable in HBSS buffer”, the Percentage remaining ([3]; 0 min) was 100% and the Percentage remaining ([3]; 30 min) was 2%. For the same compound, the Percentage remaining ([3]; 60 min) was 1%, the Percentage remaining ([4]; 0 min) was 100% and the Percentage remaining ([4]; 30 min) was 2%. For the same compound, the Percentage remaining ([4]; 60 min) was 0.1%, the Percentage remaining ([5]; 0 min) was 100% and the Percentage remaining ([5]; 30 min) was 0%. For the same compound, the Percentage remaining ([5]; 60 min) was 0.1%.

In the case of CC(C)OC(=O)OC(C)OP(=O)(CC(CCC(=O)O)C(=O)OCC(=O)N(C)C)OC(C)OC(=O)OC(C)C (stereo not shown) [Compound 26], the Percentage remaining ([6]; 0 min) is reported as 100%, the Percentage remaining ([6]; 30 min) is reported as 92% and the Percentage remaining ([6]; 60 min) is reported as 81%. It also gave a Percentage remaining ([3]; 0 min) of 100%, a Percentage remaining ([3]; 30 min) of 3% and a Percentage remaining ([3]; 60 min) of 1%. It also gave a Percentage remaining ([4]; 0 min) of 100%, a Percentage remaining ([4]; 30 min) of 86% and a Percentage remaining ([4]; 60 min) of 68%. It also gave a Percentage remaining ([7]; 0 min) of 100%, a Percentage remaining ([7]; 30 min) of 98% and a Percentage remaining ([7]; 60 min) of 92%.

With CC(C)OC(=O)OCOP(=O)(CC(CCC(=O)O)C(=O)OCC(=O)N(C)C)OCOC(=O)OC(C)C (stereo not shown) [Compound 25] the Percentage remaining ([6]; 0 min) was 100%, the Percentage remaining ([6]; 30 min) was 80% and the Percentage remaining ([6]; 60 min) was 61%. For the same compound, the Percentage remaining ([3]; 0 min) was 100%, the Percentage remaining ([3]; 30 min) was 0% and the Percentage remaining ([3]; 60 min) was 0%. The Percentage remaining ([4]; 0 min) was 100%, the Percentage remaining ([4]; 30 min) was 49% and the Percentage remaining ([4]; 60 min) was 22%. For the same compound, the Percentage remaining ([7]; 0 min) was 100%, the Percentage remaining ([7]; 30 min) was 109% and the Percentage remaining ([7]; 60 min) was 76%.

For CCCCOC(=O)c1ccccc1OP(=O)(CC(CCC(=O)O)C(=O)OC)Oc1ccccc1C(=O)OCCCC (stereo not shown) [Compound 21, 4-({Bis[2-(butoxycarbonyl)phenoxy]phosphoryl}methyl)-5-methoxy-5-oxopentanoic acid], the “permeability in vivo” value [2] was “did not show a high permeability in vivo”.

With COC(=O)CCC(CP(=O)(OCOC(=O)C(C)(C)C)OCOC(=O)C(C)(C)C)C(=O)OCOC(=O)C(C)(C)C (stereo not shown) [Compound 11] the “chemical stability” value [1] was “sufficient chemical stability”.

In the case of COC(=O)C(CCC(=O)O)CP(=O)(O)O (stereo not shown) [Compound 9], the “oral availability of prodrug” value [2] is reported as “good oral availability”.

For CCOCCOCCOCCOCCOCCOCCOP(=O)(CC(CCC(=O)OC)C(=O)OC)OCCOCCOCCOCCOCCOCCOCC (stereo not shown) [Compound 13, Dimethyl 2-((bis((3,6,9,12,15,18-hexaoxaicosyl)oxy)phosphoryl)methyl)pentanedioate], the Percentage remaining ([1]; 0 min) was 100%, the Percentage remaining ([1]; 30 min) was 99% and the Percentage remaining ([1]; 60 min) was 101%. For the same compound, the Percentage remaining ([3]; 0 min) was 100%, the Percentage remaining ([3]; 30 min) was 2% and the Percentage remaining ([3]; 60 min) was 1%. It also gave a Percentage remaining ([4]; 0 min) of 100%, a Percentage remaining ([4]; 30 min) of 99% and a Percentage remaining ([4]; 60 min) of 100%. It also gave a Percentage remaining ([5]; 0 min) of 100%, a Percentage remaining ([5]; 30 min) of 106% and a Percentage remaining ([5]; 60 min) of 100%. The “in vitro metabolic stability” value [8] was “too stable in some of the samples”.
